Test results reported in patent publication US5057427A, “Method for resolution of stereoisomers” (Sepracor, Inc., priority 1988, dated 1991).
Counter-ions that a name gives are not always drawn.

Legend:
[1] = target: T1, Protease VIII: "Subtilopeptidase A" (subtilisin Carlsberg) (Enzyme B) (Bacillus licheniformis, UniProt P00780); assay: Homogeneous aqueous enzymatic resolution (ester hydrolysis) with Enzyme B; format: biochemical; details: 150 mg enzyme B, 0.010 mol ester in 100 ml 0.2 M sodium phosphate buffer pH 7.8
T1 sequence (P00780 106-379): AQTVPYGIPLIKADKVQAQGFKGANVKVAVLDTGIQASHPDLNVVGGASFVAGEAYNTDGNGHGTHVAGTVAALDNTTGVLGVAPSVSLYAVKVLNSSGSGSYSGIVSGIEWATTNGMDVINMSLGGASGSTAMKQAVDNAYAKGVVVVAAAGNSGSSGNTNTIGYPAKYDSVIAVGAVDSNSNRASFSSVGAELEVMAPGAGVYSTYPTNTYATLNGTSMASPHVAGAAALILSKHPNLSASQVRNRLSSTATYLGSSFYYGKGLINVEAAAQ

[2] = target: T2, Protease XXVII: "Nagarse" (Enzyme D) (Bacillus amyloliquefaciens, UniProt P00782); assay: Homogeneous aqueous enzymatic resolution (ester hydrolysis) with Enzyme D; format: biochemical; details: 150 mg enzyme D, 0.010 mol ester in 100 ml 0.2 M sodium phosphate buffer pH 7.8
T2 sequence (P00782 108-382): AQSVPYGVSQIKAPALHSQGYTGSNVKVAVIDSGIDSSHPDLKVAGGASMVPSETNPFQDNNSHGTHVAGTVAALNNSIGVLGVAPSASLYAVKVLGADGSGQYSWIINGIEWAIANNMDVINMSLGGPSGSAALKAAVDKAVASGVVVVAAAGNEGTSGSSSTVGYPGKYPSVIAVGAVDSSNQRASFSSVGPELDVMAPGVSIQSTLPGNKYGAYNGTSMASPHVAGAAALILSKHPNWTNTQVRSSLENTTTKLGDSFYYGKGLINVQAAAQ

[3] = test system: Pig Liver Esterase (E); assay: Homogeneous aqueous enzymatic resolution (ester hydrolysis) with Enzyme E; format: biochemical; details: 30 mg Pig Liver Esterase (E), 0.010 mol ester in 100 ml 0.2 M sodium phosphate buffer pH 7.8
[4] = test system: Protease XXIII: from Aspergillus oryzae (Enzyme A); assay: Homogeneous aqueous enzymatic resolution (ester hydrolysis) with Enzyme A; details: for % e.e.: acid product
Experimental: 10.0 millimole (mmol) of ibuprofen substrate ester 1 (the methyl sulfonate derivative) was dissolved in 100 ml of 0.2 M phosphate buffer of the appropriate cation (sodium or potassium, to be the same as the substrate counterion) at pH 7.0. 100 mg of enzyme A, as the
commercial preparation, was added directly to this solution, and the reaction mixture was capped and then shaken briefly until all the enzyme preparation had dispersed or dissolved. The reaction mixture was then allowed to stand at ambient temperature (20°-22° C.) for 20 hours. […] The combined organic layers were backwashed twice with one volume of water, once with one volume of saturated NaCl solution, and then dried over MgSO4.
Evaporation of the ether under reduced pressure left the resolved ibuprofen acid product; no other purification was performed. The optical rotation was measured in EtOH at a concentration c=1.0 for the ibuprofen acid product.
In this Example, 0.010 mol of ibuprofen ester 3 (the propyl sulfonate derivative) was dissolved in 100 ml 0.2 M sodium phosphate buffer at pH 7.8, and 150 mg of the commercial enzyme A preparation was added. The reaction was then handled as described for Examples 6.2.1.1-6.2.1.7.
In this Example, 0.010 mol of ibuprofen ester 2 (the ethyl sulfonate ester in the form of its potassium salt) were dissolved in 125 ml of 0.2 M sodium phosphate buffer at pH 7.0, and 150 mg of enzyme A was added to the reaction mixture as the commercially supplied preparation. The reaction was allowed to proceed for 18 hours, and the resulting product mixture was then worked-up as described above for Examples 6.2.1.1-6.2.1.7.
150 mg of Protease XXIII (A), as the commercially available preparation, was added to the reaction mixture, the reaction vessel was capped, and the entire heterogeneous reaction mixture was shaken in a wrist-action shaker for 18 hours. […] This mixture was then extracted twice with 200 ml of diethyl ether. The combined organic layers were backwashed twice with one volume of water, once with one volume of saturated NaCl, and the organic phase was then dried over MgSO4. Evaporation of the ether under reduced pressure left the resolved naproxen acid. No further purification was performed. The optical rotation of the product was measured in CHCl3 at a concentration c=1.0.
0.010 mol of naproxen ester 8 (the potassium salt of the ethyl sulfonate ester) was dispersed in 125 ml of 0.2 M sodium phosphate buffer at pH 7.8. 150 mg of enzyme A, as the commercially available preparation, were added, and the reaction handled as described in Example 6.2.1.1.
0.010 mol of ibuprofen ester 6 (the compound) were dissolved in 100 ml of 0.2 M sodium phosphate buffer at pH 7.0. 100 mg of enzyme A was added as the commercially available preparation, and the reaction handled as described above in Examples 6.2.1.1-6.2.1.7.
2.0 gm (0.0058 mole) of naproxen ester 9 (the sulfomethyl compound) was dissolved in 400 ml of 50 mM sodium phosphate buffer at pH 7.5. To the reaction were added 100 mg of Protease XXIII (A) as the commercially available preparation. After the enzyme had dissolved, the reaction mixture was incubated at 25 degrees for 16 hours. The reaction mixture was then acidified to pH 1-2 by the careful dropwise addition of concentrated HCl, and then it was extracted with ether (3×150 ml). The aqueous layer was retained. The combined organic layers were backwashed with water (2×100 ml), and these aqueous washings were added to the previously retained aqueous layer of the reaction. The ether layer was then washed once with 100 ml of brine, and dried over MgSO4.

[5] = test system: protease Prozyme 6 (Enzyme F); assay: Homogeneous aqueous enzymatic resolution (ester hydrolysis) with Enzyme F; format: biochemical, Asperqillus oryzae; details: 100 mg Prozyme 6 (F), 10 mmol ester in 100 ml 0.2 M buffer pH 7.0, 25° C., 18 hours
Experimental: (Prozyme 6) (F) added. The enzymatic reaction mixtures were capped and briefly shaken until all the substrate had dissolved, and the enzyme had completely dissolved or dispersed. […] Evaporation of the ether left a white solid. Rotations were measured at c=1 in CHCl3.
The enzymatic reaction mixtures were capped and briefly shaken until all the substrate had dissolved, and the enzyme had completely dissolved or dispersed. […] Evaporation of the ether left a white solid. Rotations were measured at c=1 in CHCl3.
The reaction was started by adding 100 mg of the protease (F) from the fungus Asperqillus oryzae (from Amano Enzyme Corporation, Prozyme 6, 60,000 units per mg of solid).
After 20 hours at room temperature, the solution was acidified to pH 2 and extracted with 3 volumes of diethyl ether. The aqueous phase was saved for subsequent workup. The ether phase was washed with two volumes of distilled water and then one volume of saturated sodium chloride, and then it was dried over MgSO4 and subsequently evaporated to dryness. The resolved ibuprofen product recovered was 930 mg of white powder, indicating 45% conversion of racemic ester to acid. The optical rotation was -0.580° (measured at c=1 in ethanol), indicating the R isomer of ibuprofen.
35 mg of protease Enzyme F, as the commercial preparation Prozyme 6, were added to the aqueous solution. The reaction flask was capped, and briefly shaken until all the enzyme had dissolved or dispersed. […] The resulting mixture was diluted with one volume of water and was extracted with diethyl ether (2 times 200 ml). The ether layers were combined and backwashed with water (2 times 200 ml), saturated NaCl solution (200 ml), and then dried over MgSO4.
In this control run, a 0.5 M ester solution of (1) was prepared in 325 ml of 0.1 M sodium phosphate buffer (pH 7.0). The reaction was started by adding 3 gm of the above enzyme (F). The pH was controlled at 7.0 with 8.22 M sodium hydroxide. After 6.49 hours at 30° C., 6.63 ml of hydroxide were added, indicating 37.7% conversion. […]

[6] = cited from earlier work
[7] = 100 mg enzyme A, 10 mmol ester in 100 ml 0.2 M phosphate buffer pH 7.0, 20-22° C., 20 hours
[8] = 150 mg enzyme A, 0.010 mol ester in 100 ml 0.2 M sodium phosphate buffer pH 7.8

In the case of CC(C)Cc1ccc(C(C)C(=O)OCCCS(=O)(=O)O)cc1 (stereo not drawn) [Compound 3, Potassium Salt of 3-Sulfopropyl Ester of 2-(4-Isobutylphenyl)propanoic Acid], the “% CONVERSION” value [1] is reported as 36.4%, the “% e.e.” value ([1]; acid product) is reported as 98.6% and the “% CONVERSION” value [2] is reported as 32.0%. For the same molecule, the “% e.e.” value ([2]; acid product) was 91.0%, the “% CONVERSION” value [3] was 12.1% and the “% e.e.” value ([3]; acid product) was 88.0%. The “% CONVERSION” value [4, 7] was 50.0%, the “% CONVERSION” value [4, 8] was 47.1% and the “conversion of the racemic ester to acid” value ([4]; 1.00 gm protease (A), about 1 M ester, 40 ml, pH 7.0, room temperature, 23.9 hours, by NaOH titration) was 29%. The “% e.e.” value [4, 7] was 84.2% and the “% e.e.” value [4, 8] was 97.7%.
In the case of COc1ccc2cc(C(C)C(=O)OCC[N+](C)(C)C)ccc2c1 (stereo not drawn) [Compound 11, Methyl Sulfate Salt of 2-(N,N,N-Trimethylammonium)ethyl Ester of 2-(6-Methoxy-2-naphthyl)propanoic Acid], the “% e.e.” value ([5]; acid product) is reported as 34.0%.
In the case of COc1ccc2cc(C(C)C(=O)OCCC[N+](C)(C)C)ccc2c1 (stereo not drawn) [Compound 12, Methyl Sulfate Salt of 3-(N,N,N-Trimethylammonium)propyl Ester of 2-(6-Methoxy-2-naphthyl)propanoic Acid], the “% CONVERSION” value [5] is reported as 34.0%.
In the case of O=C1CCC(N2C(=O)c3ccccc3C2=O)C(=O)N1 [D-enantiomer of thalidomide, thalidomide], the sedative use ([6]; prescribed for the control of morning sickness during pregnancy) is given as “safe and effective sedative”.
In the case of O=C1CC[C@H](N2C(=O)c3ccccc3C2=O)C(=O)N1 [L-thalidomide], the teratogenicity ([6]; in vivo) is given as “potent teratogen”.
